# Source: patent publication US20090117074A1, “Sulfonylpyrroles as Histone Deacetylase Inhibitors” (NYCOMED GmbH, priority 2005, published 2009)
# Where a name gives a salt, the structure may show the parent alone.
# Tests used:
# [1] = test system: histone H3 hyperacetylation in HeLa cells; assay: Cellular histone H3 hyperacetylation assay; assay type: cell-based; conditions: Homo sapiens, 24 h incubation
# From the text: To assess the cellular efficacy of a histone deacetylase inhibitor in vitro, an assay is set up in black clear-bottom 96-well plates and optimized for use on the Cellomics “ArrayScan II” platform for a quantitative calculation of histone acetylation. The protocol uses a polyclonal rabbit antibody, specifically binding to acetylated lysine 23 or, alternatively, acetylated lysine 9+14 of human histone H3 on fixed cells with an Alexa Fluor 488 labeled goat anti rabbit-IgG used for counterstaining (modified from Braunger et al. AACR annual conference 2003, Abstract 4556).
# 5×10^3 HeLa cervical carcinoma cells/well (ATCC CCL-2) in 200 μl Dulbecco's modified Eagle's medium (DMEM) containing 10% fetal calf serum are seeded at day 1 in Packard view plates and incubated for 24 h under standard cell culture conditions. On day 2, 1 μl test compound (200× final concentration) is added and incubation continued for further 24 h. On day 3, the culture medium is discarded and attached cells fixed for 15 min at room temperature by addition of 100 μl fixation buffer (3.7% v:v formaldehyde in phosphate buffered saline/PBS). After discarding the fixation buffer and one wash with blocking solution (1% BSA, 0.3% Tween 20 in PBS), cells are permeabilized at room temperature by addition of 100 μl/well permeabilization buffer (30.8 mM NaCl, 0.54 mM Na2HPO4, 0.31 mM KH2PO4, 0.1% v:v Triton X-100) for 15 min at room temperature. After discarding the permeabilization buffer and washing twice with 100 μl/well blocking solution at room temperature, the 1st antibody (anti-K23 histone H3 antibody, Cell Signaling No. 9674 or, alternatively, anti-K9+14 histone H3 antibody, Calbiochem No. 382158) in blocking solution (50 μl/well) is added. After incubation for 1 h at room temperature, the wells are washed twice at room temperature with 100 μl/well blocking solution before addition of the 2nd antibody (goat-anti-rabbit Alexa Fluor 488; MoBiTec No. A-11008) in blocking solution (50 μl/well). After further incubation for 1 h at room temperature, wells are washed twice with 100 μl/well blocking solution at room temperature. Finally, 100 μl/well PBS are added and image analysis performed on the Cellomics “ArrayScan II” platform. For EC50 determination, the percentage of positive cells showing nuclear fluorescence is determined and EC50 calculation done from concentration-effect curves by means of non-linear regression. For calibration, a positive (reference HDAC inhibitors like SAHA or LBH589) and negative control is included.
# A549 NSCLC cell line = assay: Cellular cytotoxicity assay (Alamar Blue), A549; assay type: cell-based; conditions: Homo sapiens, 48 or 72 hours, read-out: IC50, anti-proliferative/cytotoxic activity
# Procedure: (§1) The anti-proliferative activity of the histone deacetylase inhibitory compounds as described herein, Is evaluated with the HeLa cervical carcinoma cell line (ATCC CCL2) and A549 non-small cell lung cancer cell line (ATCC CCL185) using the Alamar Blue (Resazurin) cell viability assay (O'Brien et al. Eur J Biochem 267, 5421-5426, 2000). Resazurin is reduced to the fluorescent resorufin by cellular dehydrogenase activity, correlating with viable, proliferating cells. Test compounds are dissolved as 20 mM solutions in dimethylsulfoxide (DMSO) and subsequently diluted in semi-logarithmic steps. HeLa or A549 cells are seeded into 96 well flat bottom plates at a density of 1000 and 2000 cells per well, respectively, in a volume of 200 μl per well. 24 hours after seeding 1 μl each of the compound dilutions are added into each well of the 96 Well plate. Each compound dilution is tested as quadruplicates.
# (§2) Wells containing untreated control cells are filled with 200 μl DMEM medium containing 0.5% v:v DMSO. The cells are then incubated with the substances for 48 or 72 hours at 37° C. in a humidified atmosphere containing 5% carbon dioxide. To determine the viability of the cells, 20 μl of an Resazurin solution (Sigma; 90 mg/I) were added. After 4 hours incubation at 37° C. the fluorescence is measured at an extinction of 544 nm and an emission of 590 nm. For the calculation of the cell viability the emission value from untreated cells is set as 100% viability and the emission rates of treated cells are set in relation to the values of untreated cells. Viabilities are expressed as % values. The corresponding IC50 values of the compounds for cytotoxic activity are determined from the concentration-effect curves by means of non-linear regression.
# [2] = test system: HeLa cervical carcinoma cell line; assay: Cellular cytotoxicity assay (Alamar Blue), HeLa; assay type: cell-based; conditions: Homo sapiens, 48 or 72 hours, read-out: IC50, anti-proliferative/cytotoxic activity
# Procedure: as §1, §2
# A549 cells = assay: Apoptosis induction (cell death detection ELISA); assay type: cell-based, human; conditions: 10 μM, 48 hours
# Procedure: The induction of apoptosis is measured by using the cell death detection ELISA (Art. No. 1774425, Roche Biochemicals, Mannheim, Germany). A549 NSCLC cells are seeded into 96 well flat bottom plates at a density of 3×10 E3 cells/well in a total volume of 200 μl/well. 24 hours after seeding, 1 μl each of the compound dilutions in DMEM are added in a total volume of 200 μl into each well (final volume 200 μl/well). Each compound dilution is tested at least as triplicates. Wells containing untreated control cells are filled with 200 μl DMEM containing 0.5 vol % DMSO. The cells are incubated with test compound for 48 hours at 37° C. in a humidified atmosphere containing 5% carbon dioxide. As a positive control for the induction of apoptosis, cells are treated with 50 μM Cisplatin (Gry Pharmaceuticals, Kirchzarten, Germany). Medium is then removed and the cells lysed in 200 μl lysis buffer. After centrifugation as described by the manufacturer, 10 μl of cell lysate is processed as described in the protocol. The degree of apoptosis is calculated as follows: The absorbance at 405 nm obtained with lysates from cells treated with 50 μM cisplatin is set as 100 cpu (cisplatin units), while an absorbance at 405 nm of 0.0 is set as 0.0 cpu. The degree of apoptosis is expressed as cpu in relation to the value of 100 cpu reached with the lysates obtained from cells treated with 50 μM cisplatin.
SMILES,melting point [°C],EC50 [1] [µM],IC50 (A549 NSCLC cell line) [µM],IC50 [2] [µM],Apoptosis induction (cisplatin units; 50 μM cisplatin = 100 cpu) (A549 cells) [cpu]
"Cc1nc(C)c(S(=O)(=O)n2ccc(C=CC(=O)NO)c2)s1 [Example 11, (E)-3-[1-(2, Dimethyl-thiazole-5-sulfonyl)-1H-pyrrol-3-yl]-N-hydroxy-acrylamide]",–,–,0.313 to 6.2,0.23 to 4.2,–
"Cn1cc(S(=O)(=O)n2ccc(/C=C/C(=O)NO)c2)cn1 [Example 8, (E)-N-Hydroxy-3-[1-(1-methyl-1H-pyrazole-4-sulfonyl)-1H-pyrrol-3-yl]-acrylamide]",–,–,0.313 to 6.2,0.23 to 4.2,–
"O=C(/C=C/c1ccn(S(=O)(=O)c2ccc(N3CCOCC3)nc2)c1)NO [Example 4, (E)-N-Hydroxy-3-[1-(6-morpholin-4-yl-pyridine-3-sulfonyl)-1H-pyrrol-3-yl]-acrylamide]",–,0.19 to 10,0.313 to 6.2,0.23 to 4.2,–
"Cc1nc(C)c(S(=O)(=O)n2ccc(C=CC(=O)NO)c2)s1 (as salt: HCl) [Example 11, (E)-3-[1-(2, Dimethyl-thiazole-5-sulfonyl)-1H-pyrrol-3-yl]-N-hydroxy-acrylamide]",181 to 182,–,–,–,–
"O=C(/C=C/c1ccn(S(=O)(=O)c2cc3ccccc3s2)c1)NO [Example 9, (E)-3-[1-(Benzo[b]thiophene-2-sulfonyl)-1H-pyrrol-3-yl]-N-hydroxy-acrylamide]",–,0.19 to 10,0.313 to 6.2,0.23 to 4.2,–
"O=C(/C=C/c1ccn(S(=O)(=O)c2ccc3ccccc3c2)c1)NO [Example 1, (E)-N-Hydroxy-3-[1-(naphthalene-2-sulfonyl)-1H-pyrrol-3-yl]-acrylamide]",–,0.19 to 10,0.313 to 6.2,0.23 to 4.2,310

# Now from value to compound, other results behind:
melting point [°C],EC50 [1] [µM],SMILES,IC50 (A549 NSCLC cell line) [µM],IC50 [2] [µM],Apoptosis induction (cisplatin units; 50 μM cisplatin = 100 cpu) (A549 cells) [cpu]
190 to 194,–,"Cc1nc(S(=O)(=O)n2ccc(/C=C/C(=O)NO)c2)cn1C [Example 12, (E)-3-[1-(1,2-Dimethyl-1H-imidazole-4-sulfonyl)-1H-pyrrol-3-yl]-N-hydroxy-acrylamide]",–,–,–
–,0.19 to 10,"Nc1ccccc1NC(=O)/C=C/c1ccn(S(=O)(=O)c2ccc3ccccc3c2)c1 [Example 2, (E)-N-(2-Amino-phenyl)-3-[1-(naphthalene-2-sulfonyl)-1H-pyrrol-3-yl]-acrylamide]",0.313 to 6.2,0.23 to 4.2,46
–,0.19 to 10,"O=C(/C=C/c1ccn(S(=O)(=O)c2ccc3ncsc3c2)c1)NO [Example 10, (E)-3-[1-(Benzothiazole-6-sulfonyl)-1H-pyrrol-3-yl]-N-hydroxy-acrylamide]",0.313 to 6.2,0.23 to 4.2,–
161.4 to 176.4,–,"O=C(/C=C/c1ccn(S(=O)(=O)c2cccnc2)c1)NO [Example 3, (E)-N-Hydroxy-3-[1-(pyridine-3-sulfonyl)-1H-pyrrol-3-yl]-acrylamide]",0.313 to 6.2,0.23 to 4.2,–
